Experimental data taken from the NIST ThermoML archive (doi:10.1016/j.fluid.2015.09.035).
Numbers after ± are expanded uncertainties.

Assay: excess molar enthalpy (molar enthalpy of mixing); xn = mol fraction of the nth substance listed
Details: Liquid, Flow calorimetry

Structure (SMILES): C1CCCCC1 [cyclohexane] + CCCC(C)O
- excess molar enthalpy (298.15 K, x2 = 0): 0 ± 0.000239 kcal/mol
- excess molar enthalpy (313.15 K, x2 = 0): 0 ± 0.000239 kcal/mol

Structure (SMILES): CCCC(C)O (centres undefined) [pentan-2-ol] + C1CCCCC1
- excess molar enthalpy (298.15 K, x1 = 0.0496): 0.105 ± 0.00143 kcal/mol
- excess molar enthalpy (298.15 K, x1 = 0.1013): 0.144 ± 0.00186 kcal/mol
- excess molar enthalpy (298.15 K, x1 = 0.151): 0.169 ± 0.00217 kcal/mol
- excess molar enthalpy (298.15 K, x1 = 0.2008): 0.189 ± 0.00239 kcal/mol
- excess molar enthalpy (298.15 K, x1 = 0.2506): 0.205 ± 0.00263 kcal/mol
- excess molar enthalpy (298.15 K, x1 = 0.3005): 0.218 ± 0.00287 kcal/mol
- excess molar enthalpy (298.15 K, x1 = 0.3503): 0.228 ± 0.00287 kcal/mol
- excess molar enthalpy (298.15 K, x1 = 0.4001): 0.232 ± 0.00287 kcal/mol
- excess molar enthalpy (298.15 K, x1 = 0.4499): 0.234 ± 0.00287 kcal/mol
- excess molar enthalpy (298.15 K, x1 = 0.5002): 0.228 ± 0.00287 kcal/mol
- excess molar enthalpy (298.15 K, x1 = 0.5499): 0.22 ± 0.00287 kcal/mol
- excess molar enthalpy (298.15 K, x1 = 0.6002): 0.207 ± 0.00263 kcal/mol
- excess molar enthalpy (298.15 K, x1 = 0.6501): 0.187 ± 0.00239 kcal/mol
- excess molar enthalpy (298.15 K, x1 = 0.7002): 0.166 ± 0.00213 kcal/mol
- excess molar enthalpy (298.15 K, x1 = 0.7504): 0.146 ± 0.00189 kcal/mol
- excess molar enthalpy (298.15 K, x1 = 0.8007): 0.121 ± 0.0016 kcal/mol
- excess molar enthalpy (298.15 K, x1 = 0.8509): 0.0932 ± 0.00124 kcal/mol
- excess molar enthalpy (298.15 K, x1 = 0.9013): 0.0625 ± 0.000884 kcal/mol
- excess molar enthalpy (298.15 K, x1 = 0.9496): 0.0302 ± 0.000502 kcal/mol
- excess molar enthalpy (298.15 K, x1 = 1): 0 ± 0.000239 kcal/mol
- excess molar enthalpy (313.15 K, x1 = 0.0496): 0.133 ± 0.00177 kcal/mol
- excess molar enthalpy (313.15 K, x1 = 0.1013): 0.181 ± 0.00232 kcal/mol
- excess molar enthalpy (313.15 K, x1 = 0.151): 0.208 ± 0.00263 kcal/mol
- excess molar enthalpy (313.15 K, x1 = 0.2008): 0.229 ± 0.00287 kcal/mol
- excess molar enthalpy (313.15 K, x1 = 0.2506): 0.246 ± 0.00311 kcal/mol
- excess molar enthalpy (313.15 K, x1 = 0.3003): 0.258 ± 0.00335 kcal/mol
- excess molar enthalpy (313.15 K, x1 = 0.3502): 0.265 ± 0.00335 kcal/mol
- excess molar enthalpy (313.15 K, x1 = 0.4002): 0.265 ± 0.00335 kcal/mol
- excess molar enthalpy (313.15 K, x1 = 0.4501): 0.265 ± 0.00335 kcal/mol
- excess molar enthalpy (313.15 K, x1 = 0.5001): 0.259 ± 0.00335 kcal/mol
- excess molar enthalpy (313.15 K, x1 = 0.5501): 0.251 ± 0.00311 kcal/mol
- excess molar enthalpy (313.15 K, x1 = 0.6001): 0.236 ± 0.00311 kcal/mol
- excess molar enthalpy (313.15 K, x1 = 0.6502): 0.219 ± 0.00287 kcal/mol
- excess molar enthalpy (313.15 K, x1 = 0.7003): 0.198 ± 0.00263 kcal/mol
- excess molar enthalpy (313.15 K, x1 = 0.7505): 0.171 ± 0.0022 kcal/mol
- excess molar enthalpy (313.15 K, x1 = 0.8007): 0.144 ± 0.00186 kcal/mol
- excess molar enthalpy (313.15 K, x1 = 0.851): 0.11 ± 0.00146 kcal/mol
- excess molar enthalpy (313.15 K, x1 = 0.9013): 0.0756 ± 0.00105 kcal/mol
- excess molar enthalpy (313.15 K, x1 = 0.9496): 0.0394 ± 0.000621 kcal/mol
- excess molar enthalpy (313.15 K, x1 = 1): 0 ± 0.000239 kcal/mol

Structure (SMILES): CCCC(C)O (centres undefined) [pentan-2-ol] + Cc1ccccc1
- excess molar enthalpy (298.15 K, x1 = 0.0508): 0.149 ± 0.00198 kcal/mol
- excess molar enthalpy (298.15 K, x1 = 0.0998): 0.226 ± 0.00287 kcal/mol
- excess molar enthalpy (298.15 K, x1 = 0.151): 0.276 ± 0.00359 kcal/mol
- excess molar enthalpy (298.15 K, x1 = 0.2002): 0.31 ± 0.00382 kcal/mol
- excess molar enthalpy (298.15 K, x1 = 0.2496): 0.335 ± 0.0043 kcal/mol
- excess molar enthalpy (298.15 K, x1 = 0.3009): 0.354 ± 0.00454 kcal/mol
- excess molar enthalpy (298.15 K, x1 = 0.3506): 0.367 ± 0.00454 kcal/mol
- excess molar enthalpy (298.15 K, x1 = 0.4003): 0.373 ± 0.00478 kcal/mol
- excess molar enthalpy (298.15 K, x1 = 0.4501): 0.373 ± 0.00478 kcal/mol
- excess molar enthalpy (298.15 K, x1 = 0.5001): 0.369 ± 0.00454 kcal/mol
- excess molar enthalpy (298.15 K, x1 = 0.5501): 0.359 ± 0.00454 kcal/mol
- excess molar enthalpy (298.15 K, x1 = 0.6003): 0.344 ± 0.0043 kcal/mol
- excess molar enthalpy (298.15 K, x1 = 0.6506): 0.32 ± 0.00406 kcal/mol
- excess molar enthalpy (298.15 K, x1 = 0.701): 0.293 ± 0.00359 kcal/mol
- excess molar enthalpy (298.15 K, x1 = 0.7495): 0.259 ± 0.00335 kcal/mol
- excess molar enthalpy (298.15 K, x1 = 0.8002): 0.22 ± 0.00287 kcal/mol
- excess molar enthalpy (298.15 K, x1 = 0.8509): 0.173 ± 0.00222 kcal/mol
- excess molar enthalpy (298.15 K, x1 = 0.8996): 0.12 ± 0.00158 kcal/mol
- excess molar enthalpy (298.15 K, x1 = 0.9508): 0.0597 ± 0.000884 kcal/mol
- excess molar enthalpy (298.15 K, x1 = 1): 0 ± 0.000239 kcal/mol
- excess molar enthalpy (313.15 K, x1 = 0.0508): 0.154 ± 0.00206 kcal/mol
- excess molar enthalpy (313.15 K, x1 = 0.0999): 0.245 ± 0.00311 kcal/mol
- excess molar enthalpy (313.15 K, x1 = 0.151): 0.307 ± 0.00382 kcal/mol
- excess molar enthalpy (313.15 K, x1 = 0.2003): 0.346 ± 0.0043 kcal/mol
- excess molar enthalpy (313.15 K, x1 = 0.2496): 0.375 ± 0.00478 kcal/mol
- excess molar enthalpy (313.15 K, x1 = 0.301): 0.397 ± 0.00502 kcal/mol
- excess molar enthalpy (313.15 K, x1 = 0.3506): 0.408 ± 0.00502 kcal/mol
- excess molar enthalpy (313.15 K, x1 = 0.4003): 0.414 ± 0.00526 kcal/mol
- excess molar enthalpy (313.15 K, x1 = 0.4502): 0.414 ± 0.00526 kcal/mol
- excess molar enthalpy (313.15 K, x1 = 0.5001): 0.407 ± 0.00502 kcal/mol
- excess molar enthalpy (313.15 K, x1 = 0.5502): 0.394 ± 0.00502 kcal/mol
- excess molar enthalpy (313.15 K, x1 = 0.6003): 0.377 ± 0.00478 kcal/mol
- excess molar enthalpy (313.15 K, x1 = 0.6505): 0.353 ± 0.0043 kcal/mol
- excess molar enthalpy (313.15 K, x1 = 0.701): 0.32 ± 0.00406 kcal/mol
- excess molar enthalpy (313.15 K, x1 = 0.7495): 0.282 ± 0.00359 kcal/mol
- excess molar enthalpy (313.15 K, x1 = 0.8002): 0.239 ± 0.00311 kcal/mol
- excess molar enthalpy (313.15 K, x1 = 0.851): 0.187 ± 0.00239 kcal/mol
- excess molar enthalpy (313.15 K, x1 = 0.8998): 0.132 ± 0.00172 kcal/mol
- excess molar enthalpy (313.15 K, x1 = 0.9509): 0.0661 ± 0.000956 kcal/mol
- excess molar enthalpy (313.15 K, x1 = 1): 0 ± 0.000239 kcal/mol

Structure (SMILES): Cc1ccccc1 [toluene] + CCCC(C)O
- excess molar enthalpy (298.15 K, x2 = 0): 0 ± 0.000239 kcal/mol
- excess molar enthalpy (313.15 K, x2 = 0): 0 ± 0.000239 kcal/mol
